Laboratory results published in patent publication US20170362283A1, “NISIN-BASED COMPOUNDS AND USE THEREOF IN THE TREATMENT OF BACTERIAL INFECTIONS” (UNIVERSITEIT UTRECHT HOLDING B.V., priority 2015, published 2017).
Values after ≈ are worked out from the molar mass of the structure shown.

What was measured:
Details in all cases: duplicate experiments
B. subtilis = system: B. subtilis
Protocol: (§1) Determining the MIC value is a standard technique well known to the skilled person, in particular the MIC value can be measured using method M07-A9 (CLSI standard, January 2012, Vol. 32, No. 2, “Methods for Dilution Antimicrobial Susceptibility Tests for Bacteria That Grow Aerobically”).
(§2) Different microorganisms (from glycerol stock) were plated out on blood agar and incubated at 37° C. for 24 hours. A colony was selected and 2×5 mL of TSB was inoculated. The samples and a sterile control were cultured for 16-20 hours at 37° C. Comparative compound B is nisin acting as a control. […] Comparative compounds A, D and E are also control compounds not part of the present invention.
(§3) The overnight cultures were diluted to 0.5×10^6 CFU in TSB. 50 μL of the bacterial solution was added to each well and the plates were sealed with an adhesive membrane and incubated at 37° C. for 16 hours. The next day, the plates were visually inspected for bacterial growth.

E. coli = system: E. coli
Protocol: as §1, §2, §3

S. aureus = system: S. aureus
Protocol: as §1, §2, §3

VRE 155 = type: cell-based
Protocol: as §1
(§4) Different microorganisms (from glycerol stock) were plated out on blood agar and incubated at 37° C. for 24 hours. A colony was selected and 2×5 mL of TSB was inoculated. The samples and a sterile control were cultured for 16-20 hours at 37° C. Comparative compound B is nisin acting as a control. Comparative compound C is vancomycin, also acting as a control. Comparative compounds A, D and E are also control compounds not part of the present invention.
as §3

MRSA USA300 = type: cell-based, Staphylococcus aureus
Protocol: as §1, §4, §3

Row | Structure (SMILES) | MIC values B. subtilis (B. subtilis) | MIC values E. coli (E. coli) | MIC values S. aureus (S. aureus) | MIC values VRE 155 (VRE 155) | MIC values MRSA USA300 (MRSA USA300)
1 | C=C1NC(=O)[C@H]([C@@H](C)CC)NC(=O)[C@H](NC(=O)C(=CC)NC(=O)[C@@H](N)[C@@H](C)CC)CSC[C@@H](C(=O)N[C@H]2C(=O)N3CCC[C@H]3C(=O)NCC(=O)N[C@H](C(=O)N[C@@H](CCCCN)C(=O)NC)CS[C@H]2C)NC(=O)[C@H](CC(C)C)NC1=O [D, reference compound] | >128 µg/mL | >128 µg/mL | >128 µg/mL | – | –
2 | C=C1NC(=O)[C@H]([C@@H](C)CC)NC(=O)[C@H](NC(=O)C(=CC)NC(=O)[C@@H](N)[C@@H](C)CC)CSC[C@@H](C(=O)N[C@H]2C(=O)N3CCC[C@H]3C(=O)NCC(=O)N[C@H](C(=O)N[C@@H](CCCCN)C(=O)N[C@@H](Cc3c[nH]c4ccccc34)C(=O)NCCCCCCCCCC)CS[C@H]2C)NC(=O)[C@H](CC(C)C)NC1=O [(15)] | 4 µg/mL (≈ 2.71 µM) | >64 µg/mL | 8 µg/mL (≈ 5.42 µM) | 2 µg/mL (≈ 1.36 µM) | 8 µg/mL (≈ 5.42 µM)
3 | C=C1NC(=O)[C@H]([C@@H](C)CC)NC(=O)[C@H](NC(=O)C(=CC)NC(=O)[C@@H](N)[C@@H](C)CC)CSC[C@@H](C(=O)N[C@H]2C(=O)N3CCC[C@H]3C(=O)NCC(=O)N[C@H](C(=O)N[C@@H](CCCCN)C(=O)NCCCCCCCCCCCCCCC)CS[C@H]2C)NC(=O)[C@H](CC(C)C)NC1=O [(11)] | 8 µg/mL (≈ 5.88 µM) | >64 µg/mL | 32 µg/mL (≈ 23.5 µM) | 8 µg/mL (≈ 5.88 µM) | 64 µg/mL (≈ 47.1 µM)
4 | C=C1NC(=O)[C@H]([C@@H](C)CC)NC(=O)[C@H](NC(=O)C(=CC)NC(=O)[C@@H](N)[C@@H](C)CC)CSC[C@@H](C(=O)N[C@H]2C(=O)N3CCC[C@H]3C(=O)NCC(=O)N[C@H](C(=O)N[C@@H](CCCCN)C(=O)NCCCCCCCCCCCCC)CS[C@H]2C)NC(=O)[C@H](CC(C)C)NC1=O [(9)] | 4 µg/mL (≈ 3 µM) | >64 µg/mL | 8 µg/mL (≈ 6.01 µM) | 2 µg/mL (≈ 1.5 µM) | 4 µg/mL (≈ 3 µM)
5 | C=C1NC(=O)[C@H]([C@@H](C)CC)NC(=O)[C@H](NC(=O)C(=CC)NC(=O)[C@@H](N)[C@@H](C)CC)CSC[C@@H](C(=O)N[C@H]2C(=O)N3CCC[C@H]3C(=O)NCC(=O)N[C@H](C(=O)N[C@@H](CCCCN)C(=O)NCCCCCCCC)CS[C@H]2C)NC(=O)[C@H](CC(C)C)NC1=O [(4)] | – | – | – | 16 µg/mL (≈ 12.7 µM) | 64 µg/mL (≈ 50.7 µM)
6 | C=C1NC(=O)[C@H]([C@@H](C)CC)NC(=O)[C@H](NC(=O)C(=CC)NC(=O)[C@@H](N)[C@@H](C)CC)CSC[C@@H](C(=O)N[C@H]2C(=O)N3CCC[C@H]3C(=O)NCC(=O)N[C@H](C(=O)N[C@@H](CCCCN)C(=O)NCCCCCCCCCCC)CS[C@H]2C)NC(=O)[C@H](CC(C)C)NC1=O [(7)] | 4 µg/mL (≈ 3.07 µM) | >64 µg/mL | 8 µg/mL (≈ 6.14 µM) | 4 µg/mL (≈ 3.07 µM) | 16 µg/mL (≈ 12.3 µM)
7 | C=C1NC(=O)[C@H]([C@@H](C)CC)NC(=O)[C@H](NC(=O)C(=CC)NC(=O)[C@@H](N)[C@@H](C)CC)CSC[C@@H](C(=O)N[C@H]2C(=O)N3CCC[C@H]3C(=O)NCC(=O)N[C@H](C(=O)N[C@@H](CCCCN)C(=O)NCCCN=[N+]=[N-])CS[C@H]2C)NC(=O)[C@H](CC(C)C)NC1=O [E, Nisin [1-12]-azide, reference compound] | >128 µg/mL | >128 µg/mL | >128 µg/mL | – | –
8 | C=C1NC(=O)[C@H]([C@@H](C)CC)NC(=O)[C@H](NC(=O)C(=CC)NC(=O)[C@@H](N)[C@@H](C)CC)CSC[C@@H](C(=O)N[C@H]2C(=O)N3CCC[C@H]3C(=O)NCC(=O)N[C@H](C(=O)N[C@@H](CCCCN)C(=O)N[C@@H](Cc3c[nH]cn3)C(=O)NCCCCCCCCCC)CS[C@H]2C)NC(=O)[C@H](CC(C)C)NC1=O [(17)] | – | – | – | 4 µg/mL (≈ 2.8 µM) | 8 µg/mL (≈ 5.61 µM)
9 | C=C1NC(=O)[C@H]([C@@H](C)CC)NC(=O)[C@H](NC(=O)C(=CC)NC(=O)[C@@H](N)[C@@H](C)CC)CSC[C@@H](C(=O)N[C@H]2C(=O)N3CCC[C@H]3C(=O)NCC(=O)N[C@H](C(=O)N[C@@H](CCCCN)C(=O)NCCCCCCCCCCCC)CS[C@H]2C)NC(=O)[C@H](CC(C)C)NC1=O [(8)] | 4 µg/mL (≈ 3.04 µM) | >64 µg/mL | 4 to 8 µg/mL | 2 µg/mL (≈ 1.52 µM) | 4 µg/mL (≈ 3.04 µM)
10 | C=C1NC(=O)[C@H]([C@@H](C)CC)NC(=O)[C@H](NC(=O)C(=CC)NC(=O)[C@@H](N)[C@@H](C)CC)CSC[C@@H](C(=O)N[C@H]2C(=O)N3CCC[C@H]3C(=O)NCC(=O)N[C@H](C(=O)N[C@@H](CCCCN)C(=O)NCCCCCCCCC)CS[C@H]2C)NC(=O)[C@H](CC(C)C)NC1=O [(5)] | 8 µg/mL (≈ 6.27 µM) | 64 µg/mL (≈ 50.2 µM) | 16 µg/mL (≈ 12.5 µM) | 8 to 16 µg/mL | 32 µg/mL (≈ 25.1 µM)
11 | C=C1NC(=O)[C@H]([C@@H](C)CC)NC(=O)[C@H](NC(=O)C(=CC)NC(=O)[C@@H](N)[C@@H](C)CC)CSC[C@@H](C(=O)N[C@H]2C(=O)N3CCC[C@H]3C(=O)NCC(=O)N[C@H](C(=O)N[C@@H](CCCCNC(=O)CCCCCCCC)C(=O)NC)CS[C@H]2C)NC(=O)[C@H](CC(C)C)NC1=O [(19)] | – | – | – | 8 µg/mL (≈ 6.14 µM) | 32 µg/mL (≈ 24.5 µM)
12 | C=C1NC(=O)[C@H]([C@@H](C)CC)NC(=O)[C@H](NC(=O)C(=CC)NC(=O)[C@@H](N)[C@@H](C)CC)CSC[C@@H](C(=O)N[C@H]2C(=O)N3CCC[C@H]3C(=O)NCC(=O)N[C@H](C(=O)N[C@@H](CCCCN)C(=O)N[C@@H](Cc3ccccc3)C(=O)NCCCCCCCCCC)CS[C@H]2C)NC(=O)[C@H](CC(C)C)NC1=O [(16)] | 4 µg/mL (≈ 2.78 µM) | >64 µg/mL | 8 µg/mL (≈ 5.57 µM) | 2 µg/mL (≈ 1.39 µM) | 8 µg/mL (≈ 5.57 µM)
13 | C=C1NC(=O)[C@H]([C@@H](C)CC)NC(=O)[C@H](NC(=O)C(=CC)NC(=O)[C@@H](N)[C@@H](C)CC)CSC[C@@H](C(=O)N[C@H]2C(=O)N3CCC[C@H]3C(=O)NCC(=O)N[C@H](C(=O)N[C@@H](CCCCN)C(=O)N[C@@H](Cc3ccc(O)cc3)C(=O)NCCCCCCCCCC)CS[C@H]2C)NC(=O)[C@H](CC(C)C)NC1=O [(18)] | 4 µg/mL (≈ 2.75 µM) | >64 µg/mL | 4 to 8 µg/mL | 2 µg/mL (≈ 1.38 µM) | 8 µg/mL (≈ 5.51 µM)
14 | C=C1NC(=O)[C@H]([C@@H](C)CC)NC(=O)[C@H](NC(=O)C(=CC)NC(=O)[C@@H](N)[C@@H](C)CC)CSC[C@@H](C(=O)N[C@H]2C(=O)N3CCC[C@H]3C(=O)NCC(=O)N[C@H](C(=O)N[C@@H](CCCCN)C(=O)NCCCCCCC)CS[C@H]2C)NC(=O)[C@H](CC(C)C)NC1=O [(3)] | 16 µg/mL (≈ 12.8 µM) | >64 µg/mL | 64 µg/mL (≈ 51.3 µM) | 8 µg/mL (≈ 6.41 µM) | 64 µg/mL (≈ 51.3 µM)
15 | C=C1NC(=O)[C@H]([C@@H](C)CC)NC(=O)[C@H](NC(=O)C(=CC)NC(=O)[C@@H](N)[C@@H](C)CC)CSC[C@@H](C(=O)N[C@H]2C(=O)N3CCC[C@H]3C(=O)NCC(=O)N[C@H](C(=O)N[C@@H](CCCCN)C(=O)NCCC[N+](C)(C)CCCCCCCCCC)CS[C@H]2C)NC(=O)[C@H](CC(C)C)NC1=O [(14)] | 4 µg/mL | >64 µg/mL | 4 µg/mL | 4 µg/mL | 8 µg/mL
16 | C=C1NC(=O)[C@H]([C@@H](C)CC)NC(=O)[C@H](NC(=O)C(=CC)NC(=O)[C@@H](N)[C@@H](C)CC)CSC[C@@H](C(=O)N[C@H]2C(=O)N3CCC[C@H]3C(=O)NCC(=O)N[C@H](C(=O)N[C@@H](CCCCNC(=O)CCN)C(=O)NCCCCCCCCCCCC)CS[C@H]2C)NC(=O)[C@H](CC(C)C)NC1=O [(21)] | – | – | – | 4 µg/mL (≈ 2.88 µM) | 8 µg/mL (≈ 5.76 µM)
17 | C=C1NC(=O)[C@H]([C@@H](C)CC)NC(=O)[C@H](NC(=O)C(=CC)NC(=O)[C@@H](N)[C@@H](C)CC)CSC[C@@H](C(=O)N[C@H]2C(=O)N3CCC[C@H]3C(=O)NCC(=O)N[C@H](C(=O)N[C@@H](CCCCN)C(=O)NCc3ccc(-c4ccc(Cl)cc4)cc3)CS[C@H]2C)NC(=O)[C@H](CC(C)C)NC1=O [(13)] | 2 to 4 µg/mL | – | – | 4 µg/mL (≈ 2.96 µM) | 8 µg/mL (≈ 5.93 µM)
18 | C=C1NC(=O)[C@H]([C@@H](C)CC)NC(=O)[C@H](NC(=O)C(=CC)NC(=O)[C@@H](NC(=O)CCN)[C@@H](C)CC)CSC[C@@H](C(=O)N[C@H]2C(=O)N3CCC[C@H]3C(=O)NCC(=O)N[C@H](C(=O)N[C@@H](CCCCNC(=O)CCN)C(=O)NCCCCCCCCCCCC)CS[C@H]2C)NC(=O)[C@H](CC(C)C)NC1=O [(22)] | – | – | – | 8 µg/mL (≈ 5.48 µM) | 16 µg/mL (≈ 11 µM)
